Structures can show the parent of a compound that is named as a salt.
Key:
[1] = system: NMDA receptor; settings: cited from earlier work
[2] = cited from earlier work
[3] = cited from earlier work; remark: listed apart in the source
[4] = system: treatment-resistant depression; settings: cited from earlier work
[5] = Pharmacokinetics of inhaled esketamine dry powder in healthy volunteers; format: in vivo; settings: overall conclusion
Method: Esketamine hydrochloride dry powder formulation of Example 2 was administered to healthy volunteers pulmonary, i.e. directly to the lungs using dry powder inhaler (DPI) (by self-administration).
One puff of dry powder formulation contained 4.6 mg of esketamine hydrochloride, corresponding to 4 mg of esketamine free base and excipients 18.22 mg of lactose monohydrate and 0.18 mg of magnesium stearate.
A single dose was an inhalation events consisting of 1 to 6 puffs, i.e. 4 to 24 mg of esketamine free base nominal dose.
In part A of the study, designed as a one-centre single ascending dose, the medicine was delivered in a single dose once daily (up to 6 consecutive puffs) to 18 healthy volunteer subjects. Subjects were divided into 6 cohorts, cohorts receiving 1, 2, 3, 4, 5 or 6 puffs in a single doses (inhalation events), respectively.
Collection of blood samples for determination of esketamine and esnorketamine concentration and calculation of pharmacokinetic parameters was performed for up 24 hours following the start of the test.
The aim of the study was to determine the amount of puffs needed to obtain plasma concentration similar to that sufficient to achieve antidepressant effect as for 0.20 mg/kg 40 minutes intravenous infusion. It can be predicted on the basis of literature data that this corresponds to concentration at 40 min of infusion between about 60 to 100 ng/ml. […]

[6] = nebulized saline solution, inhalation; cited from earlier work
[7] = after intravenous infusion of racemic ketamine
[8] = after oral administration of ketamine

## NC1(c2ccccc2Cl)CCCCC1=O (stereo not drawn) [norketamine]
[1]
  activity on NMDA receptor relative to ketamine: many times less active than ketamine
[2]; [7]
  maximum concentration as % of ketamine concentration: 10-20%
  percentage of AUC norketamine to ketamine: 20-40%
[3]; [8]
  AUC relative to ketamine: exceeding 1000%
  level as % of ketamine level: 500-1000%

## CN[C@]1(c2ccccc2Cl)CCCCC1=O [esketamine]
[4]; 40-minute i.v. infusion of 0.20 mg/kg or 0.40 mg/kg (Singh et al.)
  antidepressant effect in TRD patients: rapid onset of robust antidepressant effects
[5]
  plasma concentration profile after pulmonary administration: quite smooth, consistent with a target profile and safe for chronic administration

## CNC1(c2ccccc2Cl)CCCCC1=O (racemic) [ketamine]
[4]; human, in vivo
  fraction of patients with treatment-resistant depression responsive to treatment: about 2/3
[2]; after intravenous infusion 0.5 mg/kg for 40 minutes
  half-period of concentration fall: below 2 hours
[2]; intravenous infusion 0.5 mg/kg for 40 minutes, maintained for about 40 minutes
  systemic concentration of parent drug: about 200 ng/ml
[3]; orally administered
  bioavailability: 16-20%

## CN[C@]1(c2ccccc2Cl)CCCCC1=O [esketamine hydrochloride]
[6]
  inhaled bioavailability: reduced

— patent US20220226586A1, “An Inhaler For Electronically Supervised Parenteral Administration of a Pharmaceutical Composition” (Celon Pharma S.A., priority 2019, published 2022)
